Experimental data reported in US9705096B2, “Organic transistor, compound, organic semiconductor material for non-light-emitting organic semiconductor device, material for organic transistor, coating solution for non-light-emitting organic semiconductor device, organic semiconductor film for non-light-emitting organic semiconductor device, …” (FUJIFILM Corporation, priority 2014, dated 2017).

Assay: Solubility in toluene
Format: physicochemical
Conditions: organic solvent or mixture, thermodynamic from solid; 20 mg compound mixed with toluene (1 mL)
Description: A: The compound was completely dissolved.
B: A bit of the compound was left undissolved.
C: Most of the compound was left undissolved.

Structure (SMILES) | solubility [mg/mL]
CCc1cc2sc3cc4sc5cc(CC)sc5c4cc3c2s1 [Comparative compound 1, reference compound] | < 20
CC(C)CCCC(C)CCc1cc2sc3cc4sc5cc(CCC(C)CCCC(C)C)sc5c4cc3c2s1 (stereo not drawn) [Compound 31] | > 20
CC(C)CCCC(C)CCc1ccc(-c2cc3sc4cc5sc6cc(-c7ccc(CCC(C)CCCC(C)C)s7)sc6c5cc4c3s2)s1 (stereo not drawn) [Compound 33] | > 20
